Values joined by “and” are separate entries in the source; they are usually repeats but may differ in a detail not shown here. Identical values can stand only once. Ends that are not written are not given here.
Legend:
FcγIIb = assay: FcγR reverse ELISA: inhibition of PAP immune complex binding (Table 2); conditions: PAP/peptide mixture on FcγR coated plates; positive control 1.394
Source text: (§1) For this reason, a “reverse ELISA” technique has been used to assess binding of the Fc region to ligands that bind to immune complexed IgG Fc. In a reverse ELISA, the enzyme (e.g., HRP) is not covalently conjugated to the Fc portion of the secondary antibody. Rather, a preformed immune complex of peroxidase-rabbit (or mouse) anti-peroxidase IgG (“PAP” complex) is used. […] In the reverse ELISA system, an Fc CH2-CH3 cleft binding ligand (e.g., purified human C1q) was bound to microwell plates. In the absence of competitor, PAP complexes bound to the immobilized ligand and the reaction between HRP and its substrate produces a signal. This signal was reduced by polypeptides and compounds that inhibited PAP binding to the immobilized ligand.
(§2) Once the reverse ELISA protocol was established using the C1q assay, the assay was redesigned using FcγIIa, FcγIIb and FcγIII in place of C1q. Highly purified FcγIIa, FcγIIb and FcγIII (R&D Systems, Minneapolis, Minn.) were immunoadsorbed onto plastic microwells. After optimizing the FcγR reverse ELISA system, simple competitive inhibition experiments using polypeptides provided herein were conducted to investigate their ability to inhibit binding of immune complexes to purified FcγR.
(§3) Falcon microtiter plates were coated with 1:10 dilutions of highly purified FcγIIa, FcγIIb and FcγIII and incubated for 24 hours. The plates were washed and then blocked with 5×BSA blocking solution (Alpha Diagnostic International, San Antonio, Tex.) for 24 hours. PAP immune complexes were formed as described in Example 1. PAP (100 μl) were pre-incubated with 100 μl of peptide for one hour. PAP/peptide mixtures were added to the FcγR coated plates and incubated for one hour. After washing, plates were incubated with ABTS substrate (Quidel Corp.) for 15 minutes and read at 405 nm.

FcγIIIa = assay: as above; conditions: PAP/peptide mixture on FcγR coated plates; positive control 1.588
Source text: as §1, §2, §3

FcγIIa (R131 allele) = assay: as above; conditions: PAP/peptide mixture on FcγR coated plates; positive control 1.599
Source text: as §1, §2, §3

human C1q = assay: Reverse ELISA: inhibition of PAP immune complex binding to C1q coated plates; conditions: for OD 405 nm: PAP pre-incubated with peptide or C1q one hour, C1q coated plates, lower OD = more inhibition, positive control 2.355
Source text: as §1
PAP complexes were formed mixing 2 μl of rabbit anti-peroxidase (Sigma Chemicals, St. Louis, Mo.; Cat. No. P7899) with 50 μl of peroxidase (Sigma-Aldrich, Cat. No. P6782) in 1 ml distilled water. PAP (100 μl) were pre-incubated with 100 μl of peptide for one hour, 100 μl were pre-incubated with 100 μl of peptide or human C1q (Quidel Corp., San Diego, Calif.) for one hour. The C1q/PAP and peptide/PAP mixtures (100 μl) were incubated with C1q coated plates for 30 minutes. After washing, plates were incubated with ATBS (Quidel Corp.) for 15 minutes and read at 405 nm.

mice having induced ITP = assay: In vivo treatment of ITP induced by rabbit anti-platelet antibody, platelet counting by flow cytometry; set-up: species or system CD-1 mice; conditions: for Platelet counts, individual mice: intraperitoneal, 24 hours; for Platelet counts, mean: 3 mice, ITP alone mean 170.7, Nil 1016; for Effect on induced ITP: first experiment, Table 4, 10× and 100× molar
Experimental: Mice: CD-1 mice approximately 6-8 weeks of age were obtained from Charles River (Montreal). The animals were housed 3-5 per cage in filter-topped cages. The temperature and relative humidity were maintained at […] and 35-70%, respectively, and a 12 hour light/dark cycle was used. The mice were fed rodent chow and water ad libitum.
Anti-platelet antibodies to induce ITP: A rabbit anti-platelet antibody (Inter-Cell Technologies, Inc., Jupiter, Fla.; Cat. No. A31440) was used to induce ITP. Each mouse received 10 μl antibody-containing serum, diluted with 190 μl PBS for injection, such that the final injection volume was 200 μl for all groups injected with anti-platelet antibody.
On the day of use, one vial of rabbit anti-platelet antibody was removed from the freezer, placed in a 22° C. water bath, and shaken. The tube was checked every 30 seconds, and when it was completely thawed it was placed in a microcentrifuge and centrifuged at 10,000×g (11,000 rpm) for 10 minutes at 4° C. The supernatant fluid was transferred to a new tube and the pellet was discarded. The supernatant was placed on ice until used or diluted, as appropriate. Unused portions of the sera were discarded.
Therapeutic treatment of ITP: IVIg was used as a standard control treatment for the ITP induced by the rabbit anti-platelet antibody. The IVIg was Gamimmune® N, 10%. Treatment with IVIg consisted of an intraperitoneal injection of 50 mg (500 μl) IVIg, a dose that was equivalent to a dose of 2,000 mg/kg body weight.
Platelet enumeration: All mice were bled via the saphenous vein. 50 μL of blood were collected into 450 μL PBS/1% EDTA. The blood was further diluted in PBS/1% EDTA. Platelets were enumerated by flow cytometry with a Guava microcapillary cytometer (Guava EasyCyteMini, Guava Technologies, Inc., Hayward, Calif.), using forward scatter (FSC) versus side scatter (SSC) to gate platelets.
Peptides used to inhibit ITP: Peptides having the amino acid sequences set forth in SEQ ID NO:2 ([…]), SEQ ID NO:20 ([…]), and a control peptide in which Trp7, Val13 and Trp14 of SEQ ID NO:20 were replaced by alanines ([…]; SEQ ID NO:57) were tested for their ability to inhibit ITP. Alanine substation of Val13 and Trp14 causes a decrease in binding affinity (measured by ΔΔG, where G=Gibbs Energy) of greater than 1,000 fold.
Peptides were stored at −20° C. until the day of use. On the day of use, peptides were removed from the freezer, placed in a 22° C. water bath, shaken, and checked every 30 seconds for thawing. When thawed, the peptides were placed on ice until use. For samples that received a 10× dose of peptide, the following were sequentially added to a 1.5 ml polypropylene Eppendorf tube: 623 μl PBS (pH 7.22), 35 μL rabbit anti-plaletet IgG, and 42 μl peptide, with mixing after each addition. For samples having a 100× dose of peptide, the following were added sequentially to a 1.5 ml polypropylene Eppendorf tube: 245 μl PBS (pH 7.22), 35 μL rabbit anti-plaletet IgG, and 420 μl peptide, with mixing after each addition. The peptides were incubated for at least 30 minutes at 22° C. prior to injection into mice. (A 15 minute incubation in the laboratory, transport of the mixtures to the Vivarium, and injection took roughly an additional 30 minutes.)
The final volume of each peptide mixture was 700 μL, which was sufficient for injection of 3 mice (200 μl/mouse, plus 100 μl to cover dead volume). For the 10× dose/mouse of peptide, 12 μg of peptide (12 μl of 1 mg/ml solution) was mixed with 100 μg of the rabbit anti-platelet IgG (10 μl of 10 mg/ml solution). The volume of 700 μl was about 3.5× the volume injected per mouse (200 μl). To obtain the dose of peptide and rabbit IgG for the 700 μl final volume, dose of peptide or Rabbit IgG per mouse was multiplied by 3.5 (e.g., 12 μl peptide/mouse×3.5=42 μl, 10 μl Rabbit IgG/mouse×3.5=35 μl). PBS (623 μl, pH 7.22) was added to make up the final volume 700 μl. […]

[1] = molecular target: PAP complex: preformed immune complex of peroxidase and rabbit anti-peroxidase IgG (horseradish) (UniProt P00433); assay: reverse ELISA competition: PAP pre-incubated with peptide, then on plate coated with FcγIIb; signal is PAP left bound to the receptor
[2] = molecular target: PAP complex: preformed immune complex of peroxidase and rabbit anti-peroxidase IgG (horseradish) (UniProt P00433); assay: reverse ELISA competition: PAP pre-incubated with peptide, then on plate coated with FcγIIa (R131 allele); signal is PAP left bound to the receptor
[3] = molecular target: PAP complex: preformed immune complex of peroxidase and rabbit anti-peroxidase IgG (horseradish) (UniProt P00433); assay: reverse ELISA competition: PAP pre-incubated with peptide, then on C1q-coated plate; signal is PAP left bound to immobilised human C1q (lower = more inhibition)
[4] = molecular target: PAP complex: preformed immune complex of peroxidase and rabbit anti-peroxidase IgG (horseradish) (UniProt P00433); assay: reverse ELISA competition: PAP pre-incubated with peptide, then on plate coated with FcγIIIa; signal is PAP left bound to the receptor
[5] = ITP + 10X molar amount of peptide
[6] = ITP + 100X molar amount of peptide

Sequence of UniProt P00433 (P00433 31-338, one chain of several): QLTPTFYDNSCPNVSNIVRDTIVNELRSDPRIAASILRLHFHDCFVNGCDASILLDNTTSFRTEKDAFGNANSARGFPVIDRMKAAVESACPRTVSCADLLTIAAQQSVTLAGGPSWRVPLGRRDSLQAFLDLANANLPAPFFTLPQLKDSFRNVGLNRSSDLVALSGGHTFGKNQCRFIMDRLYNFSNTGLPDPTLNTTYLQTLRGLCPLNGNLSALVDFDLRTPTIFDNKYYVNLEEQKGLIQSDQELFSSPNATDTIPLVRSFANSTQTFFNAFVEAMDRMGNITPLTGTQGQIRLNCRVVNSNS

Row | OD405 [1] [OD405] | OD405 [2] [OD405] | OD 405 nm [3] [OD 405 nm] | OD405 [4] [OD405] | Molecule | OD405 FcγIIb (FcγIIb) | OD405 FcγIIIa (FcγIIIa) | OD405 FcγIIa (R131 allele) (FcγIIa (R131 allele)) | OD 405 nm (human C1q) | other results
1 |  |  |  |  | Asp-Cys-Ala-Phe-His-Leu-Gly-Glu-Leu-Val-Trp-Cys-Thr (DCAFHLGELVWCT) [SEQ ID NO:3] | 0.510 | 0.810 | 0.660 | 0.859 | 
2 |  |  |  |  | APPCAFHLGELVWCT (cysteine pairing not given here) [SEQ ID NO:18] | 0.380 | 0.880 | 0.605 | 0.983 | 
3 |  |  |  |  | APPCARHLGELVWCT (cysteine pairing not given here) [SEQ ID NO:16] | 0.768 | 0.709 | 0.956 | 0.567 | Inhibition of C1q binding (ranking in words) (human C1q; summary of Table 1): next best result
4 |  |  |  |  | APPDCAAHLGELAACT [SEQ ID NO:57, reference compound] |  |  |  |  | Platelet counts, individual mice (mice having induced ITP; ITP + 10X molar amount of peptide, listed as CP): 1.99e+11 L⁻¹ and 1.91e+11 L⁻¹ and 1.43e+11 L⁻¹; Platelet counts, mean (mice having induced ITP; [5]): 1.777e+11 L⁻¹; Platelet counts, individual mice (mice having induced ITP; ITP + 100X molar amount of peptide, listed as CP): 1.55e+11 L⁻¹ and 1.6e+11 L⁻¹ and 1.79e+11 L⁻¹; Platelet counts, mean (mice having induced ITP; [6]): 1.647e+11 L⁻¹; Effect on induced ITP (mice having induced ITP): no effect
5 |  |  |  |  | Asp-Cys-Ala-Trp-His-Leu-Gly-Glu-Leu-Val-Trp-Cys-Thr [SEQ ID NO:2] | 0.532 | 0.741 | 0.561 | 1.100 | Platelet counts, individual mice (mice having induced ITP; ITP + 10X molar amount of peptide, listed as BP): 1.63e+11 L⁻¹ and 1.17e+11 L⁻¹ and 2.33e+11 L⁻¹; Platelet counts, mean (mice having induced ITP; [5]): 1.71e+11 L⁻¹; Platelet counts, individual mice (mice having induced ITP; ITP + 100X molar amount of peptide, listed as BP): 1.55e+11 L⁻¹ and 1.25e+11 L⁻¹ and 1.94e+11 L⁻¹; Platelet counts, mean (mice having induced ITP; [6]): 1.58e+11 L⁻¹; Effect on induced ITP (mice having induced ITP): no effect
6 |  |  |  |  | APPCAWHLGELVWCT (cysteine pairing not given here) [SEQ ID NO:14] | 0.562 | 0.530 | 0.658 | 1.148 | 
7 | 0.768 | 0.956 | 0.567 | 0.709 | APPCARHLGELVWCT [Peptide … (SEQ ID NO:16)] |  |  |  |  | 
8 | 0.51 | 0.66 | 0.859 | 0.81 | DCAFHLGELVWCT [Peptide … (SEQ ID NO:3)] |  |  |  |  | 
9 | 0.562 | 0.658 | 1.15 | 0.53 | APPCAWHLGELVWCT [Peptide … (SEQ ID NO:14)] |  |  |  |  | 
10 | 0.38 | 0.605 | 0.983 | 0.88 | APPCAFHLGELVWCT [Peptide … (SEQ ID NO:18)] |  |  |  |  | 
